From ChEMBL document CHEMBL1144627, “N-(3-(4-Hydroxyphenyl)-propenoyl)-amino acid tryptamides as SIRT2 inhibitors” (Bioorg Med Chem Lett, 2007)

Tests used:
[1] = molecular target: T1, NAD-dependent protein deacetylase sirtuin-2 (Homo sapiens, UniProt Q8IXJ6); test: Inhibition of SIRT2
T1 sequence (Q8IXJ6 whole entry): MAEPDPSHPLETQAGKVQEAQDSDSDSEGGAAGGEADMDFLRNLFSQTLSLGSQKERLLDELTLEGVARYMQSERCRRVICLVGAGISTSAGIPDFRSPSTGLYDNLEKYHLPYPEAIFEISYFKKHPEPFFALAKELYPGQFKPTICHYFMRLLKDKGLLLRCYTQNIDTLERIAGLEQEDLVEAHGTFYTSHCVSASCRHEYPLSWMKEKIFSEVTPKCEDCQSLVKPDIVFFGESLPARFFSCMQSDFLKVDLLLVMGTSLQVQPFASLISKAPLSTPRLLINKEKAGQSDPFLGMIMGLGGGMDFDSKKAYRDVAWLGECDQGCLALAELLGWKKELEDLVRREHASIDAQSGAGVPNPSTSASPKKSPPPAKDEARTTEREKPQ

[2] = molecular target: T2, NAD-dependent protein deacetylase sirtuin-2 (Homo sapiens) (UniProt Q8IXJ6); test: Inhibition of SIRT2 at 200 uM
T2 sequence (whole entry): T1 sequence (Q8IXJ6 whole entry)

[3] = molecular target: T3, NAD-dependent protein deacetylase sirtuin-1 (Homo sapiens) (UniProt Q96EB6); test: Inhibition of SIRT1 at 200 uM
T3 sequence (whole entry): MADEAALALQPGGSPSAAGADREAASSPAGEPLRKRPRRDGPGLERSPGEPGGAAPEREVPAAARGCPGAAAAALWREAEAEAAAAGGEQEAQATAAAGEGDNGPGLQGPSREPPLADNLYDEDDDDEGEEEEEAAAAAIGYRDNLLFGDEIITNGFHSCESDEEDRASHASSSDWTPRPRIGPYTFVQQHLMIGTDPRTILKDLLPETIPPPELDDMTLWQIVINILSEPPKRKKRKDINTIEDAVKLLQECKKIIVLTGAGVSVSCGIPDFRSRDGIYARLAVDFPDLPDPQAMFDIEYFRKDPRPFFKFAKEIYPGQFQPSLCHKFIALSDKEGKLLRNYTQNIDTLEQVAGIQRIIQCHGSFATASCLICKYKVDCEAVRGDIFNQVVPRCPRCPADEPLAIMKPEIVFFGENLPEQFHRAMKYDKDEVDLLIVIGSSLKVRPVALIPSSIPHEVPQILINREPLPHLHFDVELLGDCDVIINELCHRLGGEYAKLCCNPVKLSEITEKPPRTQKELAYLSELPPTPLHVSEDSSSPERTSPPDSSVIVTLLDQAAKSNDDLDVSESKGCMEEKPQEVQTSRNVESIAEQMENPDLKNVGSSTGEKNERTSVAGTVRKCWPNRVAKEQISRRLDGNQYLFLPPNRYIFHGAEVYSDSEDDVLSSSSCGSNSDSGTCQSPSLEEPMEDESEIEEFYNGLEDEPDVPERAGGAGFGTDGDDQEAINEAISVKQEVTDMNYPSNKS

[4] = molecular target: T4, NAD-dependent protein deacetylase sirtuin-1 (Homo sapiens, UniProt Q96EB6); test: Inhibition of SIRT1
T4 sequence (Q96EB6 whole entry): T3 sequence (whole entry)

Row | Compound | IC50 [1] | inhibition [2] | inhibition [3] | IC50 [4]
1 | CC(C)(NC(=O)/C=C/c1ccc(O)cc1)C(=O)NCCc1c[nH]c2ccc(F)cc12 | 80 µM | 67.5% | 7% | 
2 | C[C@@H](NC(=O)/C=C/c1ccc(O)cc1)C(=O)NCCc1c[nH]c2ccccc12 |  | 8.5% | 3.2% | 
3 | COc1ccc(/C=C/C(=O)NC(C)(C)C(=O)NCCc2c[nH]c3ccccc23)cc1 | 99 µM | 55.4% | 10.3% | 
4 | NC(=O)C1CCCc2c1[nH]c1ccc(Cl)cc21 (stereo unspecified) |  | 89.4% | 98.9% | 
5 | CC(C)(NC(=O)/C=C/c1ccc(OCc2ccccc2)cc1)C(=O)NCCc1c[nH]c2ccccc12 |  | 32.6% | 10.2% | 
6 | O=C(/C=C/c1ccc(OCc2ccccc2)cc1)NC1(C(=O)NCCc2c[nH]c3ccccc23)CCNCC1 | 63 µM | 79.1% | 97% | 52 µM
7 | O=C(/C=C/c1ccc(OCc2ccc(F)cc2)cc1)NC1(C(=O)NCCc2c[nH]c3ccc(F)cc23)CCNCC1 |  |  | 94.1% | 73 µM
8 | O=C(/C=C/c1ccc(O)cc1)NCC(=O)NCCc1c[nH]c2ccccc12 |  | 44.3% | 9.9% | 
9 | C[C@H](NC(=O)/C=C/c1ccc(O)cc1)C(=O)NCCc1c[nH]c2ccccc12 | 47 µM | 88.6% | 17.7% | 
10 | CC(C)(NC(=O)/C=C/c1ccc(O)cc1)C(=O)NCCc1c[nH]c2ccccc12 | 50 µM | 83.3% | 6.6% | 
